Series [1] concerns the target T1, Sodium-dependent serotonin transporter (Homo sapiens, UniProt P31645). Particulars: HEK293, at 0.1 µM.
Target sequence in this assay (P31645 whole entry, looked up): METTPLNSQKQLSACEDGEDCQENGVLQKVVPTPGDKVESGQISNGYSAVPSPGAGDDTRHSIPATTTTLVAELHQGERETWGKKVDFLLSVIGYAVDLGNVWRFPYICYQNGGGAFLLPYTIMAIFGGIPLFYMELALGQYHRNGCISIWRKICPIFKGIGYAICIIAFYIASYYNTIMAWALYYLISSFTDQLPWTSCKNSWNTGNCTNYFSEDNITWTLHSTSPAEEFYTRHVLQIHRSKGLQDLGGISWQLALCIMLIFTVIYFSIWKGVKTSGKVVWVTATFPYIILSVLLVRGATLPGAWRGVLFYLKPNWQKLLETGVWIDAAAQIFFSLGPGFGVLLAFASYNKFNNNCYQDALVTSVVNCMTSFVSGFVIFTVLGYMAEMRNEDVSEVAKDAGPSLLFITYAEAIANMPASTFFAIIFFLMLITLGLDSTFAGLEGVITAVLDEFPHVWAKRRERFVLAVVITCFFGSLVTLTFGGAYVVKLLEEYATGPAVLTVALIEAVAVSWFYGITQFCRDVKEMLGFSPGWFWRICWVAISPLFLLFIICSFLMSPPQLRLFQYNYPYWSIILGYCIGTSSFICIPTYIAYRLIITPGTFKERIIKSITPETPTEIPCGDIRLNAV
Series [2] in a line: Stability in human liver microsomes assessed as compound remaining at 1 uM after 30 mins by LC/MS analysis. It is filed as ADME. Particulars: read-out: Stability.
In series [3] the target is T1, Sodium-dependent serotonin transporter. The note with it: HEK293, at 1 µM.
Target sequence in this assay (P31645 whole entry, looked up): as above
For series [4] the target is unchanged. Particulars: HEK293, at 10 µM.
Target sequence in this assay (P31645 whole entry, looked up): as above
Series [5] addresses T2, Sodium-dependent noradrenaline transporter (Homo sapiens, UniProt P23975). Briefly: Ratio of duloxetine IC50 to compound IC50 for norepinephrine reuptake at human NET expressed in HEK293 cells at 0.1 uM after 15 mins by fluorescence neurotransmitter transporter assay. The format is cell-based.
Series [6] has as its target T2, Sodium-dependent noradrenaline transporter. Briefly: Ratio of venlafaxine IC50 to compound IC50 for norepinephrine reuptake at human NET expressed in HEK293 cells at 0.1 uM after 15 mins by fluorescence neurotransmitter transporter assay. The format is cell-based.
Series [7] deals with T1, Sodium-dependent serotonin transporter. Briefly: Ratio of duloxetine IC50 to compound IC50 for serotonin reuptake at human SERT expressed in HEK293 cells at 0.1 uM after 15 mins by fluorescence neurotransmitter transporter assay. It is filed as cell-based.
Target sequence in this assay (P31645 whole entry, looked up): as above
Series [8] shares this target. Briefly: Ratio of venlafaxine IC50 to compound IC50 for serotonin reuptake at human SERT expressed in HEK293 cells at 0.1 uM after 15 mins by fluorescence neurotransmitter transporter assay. The format is cell-based.
Target sequence in this assay (P31645 whole entry, looked up): as above
Series [9] has the same target. It is filed as cell-based, HEK293.
Target sequence in this assay (P31645 whole entry): as the sequence (P31645 whole entry, looked up) above
Series [10] has as its target T2, Sodium-dependent noradrenaline transporter.
For series [11], the target named is Sodium-dependent dopamine transporter (Homo sapiens, UniProt Q01959).
Chain of Sodium-dependent dopamine transporter (Q01959 whole entry): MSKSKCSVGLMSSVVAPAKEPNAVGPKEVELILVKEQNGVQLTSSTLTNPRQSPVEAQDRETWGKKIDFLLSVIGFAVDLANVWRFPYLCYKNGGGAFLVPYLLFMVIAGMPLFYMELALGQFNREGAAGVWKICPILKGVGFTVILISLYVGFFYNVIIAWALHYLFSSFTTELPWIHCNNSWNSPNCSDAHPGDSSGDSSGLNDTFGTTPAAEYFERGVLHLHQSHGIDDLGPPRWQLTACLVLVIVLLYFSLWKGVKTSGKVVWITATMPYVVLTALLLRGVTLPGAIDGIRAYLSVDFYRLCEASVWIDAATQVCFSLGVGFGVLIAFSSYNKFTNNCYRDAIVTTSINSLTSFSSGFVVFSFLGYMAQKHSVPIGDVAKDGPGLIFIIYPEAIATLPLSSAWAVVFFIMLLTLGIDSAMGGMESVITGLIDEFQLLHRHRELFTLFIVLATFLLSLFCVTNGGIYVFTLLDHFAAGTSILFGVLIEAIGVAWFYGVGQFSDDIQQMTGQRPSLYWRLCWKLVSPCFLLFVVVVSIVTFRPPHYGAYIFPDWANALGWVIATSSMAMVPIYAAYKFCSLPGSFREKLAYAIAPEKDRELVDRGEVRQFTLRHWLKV
The target of the next series is T3, CYP1A2 (Homo sapiens, UniProt P05177).
T3 sequence (P05177 whole entry): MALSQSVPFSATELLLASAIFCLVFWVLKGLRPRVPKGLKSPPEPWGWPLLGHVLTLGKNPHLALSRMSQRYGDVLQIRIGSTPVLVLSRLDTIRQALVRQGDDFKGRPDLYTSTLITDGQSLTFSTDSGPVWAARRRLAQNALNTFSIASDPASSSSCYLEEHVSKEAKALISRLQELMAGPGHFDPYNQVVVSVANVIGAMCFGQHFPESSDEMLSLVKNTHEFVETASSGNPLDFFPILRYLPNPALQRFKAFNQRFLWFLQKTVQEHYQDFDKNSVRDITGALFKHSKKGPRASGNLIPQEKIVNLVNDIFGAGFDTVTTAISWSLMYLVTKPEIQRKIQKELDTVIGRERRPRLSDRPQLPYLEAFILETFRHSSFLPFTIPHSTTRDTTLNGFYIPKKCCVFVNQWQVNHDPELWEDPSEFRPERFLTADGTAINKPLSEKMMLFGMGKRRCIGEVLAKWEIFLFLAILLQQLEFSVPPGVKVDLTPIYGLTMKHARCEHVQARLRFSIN
Briefly: in vitro. Particulars: recombinant CYP1A2.

The target of another series is CYP2C9 (Homo sapiens, UniProt P11712). Briefly: in vitro. The note with it: recombinant CYP2C9.
Chain of CYP2C9 (P11712 whole entry): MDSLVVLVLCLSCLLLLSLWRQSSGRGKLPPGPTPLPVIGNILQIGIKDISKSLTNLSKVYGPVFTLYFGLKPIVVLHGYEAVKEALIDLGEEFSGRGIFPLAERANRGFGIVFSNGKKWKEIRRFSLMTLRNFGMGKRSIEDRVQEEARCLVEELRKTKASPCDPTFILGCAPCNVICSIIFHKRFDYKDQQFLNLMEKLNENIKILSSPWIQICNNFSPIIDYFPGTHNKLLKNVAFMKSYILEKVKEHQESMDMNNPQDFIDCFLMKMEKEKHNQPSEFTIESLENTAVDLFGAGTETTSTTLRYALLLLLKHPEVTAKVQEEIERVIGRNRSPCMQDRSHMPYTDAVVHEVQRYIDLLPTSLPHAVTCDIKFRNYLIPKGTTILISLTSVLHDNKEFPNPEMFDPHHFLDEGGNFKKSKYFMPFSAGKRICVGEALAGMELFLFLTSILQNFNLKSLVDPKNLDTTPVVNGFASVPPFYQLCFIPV
For a further series, the target named is CYP2C19 (Homo sapiens, UniProt P33261). Briefly: in vitro. Particulars: recombinant CYP2C19.
Chain of CYP2C19 (P33261 whole entry): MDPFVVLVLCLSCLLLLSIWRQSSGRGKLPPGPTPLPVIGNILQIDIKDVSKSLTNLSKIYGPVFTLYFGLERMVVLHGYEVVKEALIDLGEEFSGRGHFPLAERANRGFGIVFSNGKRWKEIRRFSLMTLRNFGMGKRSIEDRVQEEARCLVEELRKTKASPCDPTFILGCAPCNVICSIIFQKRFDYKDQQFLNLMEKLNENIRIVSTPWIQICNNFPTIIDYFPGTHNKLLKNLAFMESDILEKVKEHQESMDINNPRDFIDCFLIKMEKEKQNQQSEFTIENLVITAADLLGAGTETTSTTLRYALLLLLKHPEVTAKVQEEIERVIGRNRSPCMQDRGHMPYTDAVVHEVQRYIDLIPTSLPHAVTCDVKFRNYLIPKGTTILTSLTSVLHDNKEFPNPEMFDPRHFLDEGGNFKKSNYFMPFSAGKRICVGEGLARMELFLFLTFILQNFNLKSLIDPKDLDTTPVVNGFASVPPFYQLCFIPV

Structures are written as SMILES. pIC50: −log10 of the molar value. Some results are limits rather than exact numbers.

We go through 47 compounds from ChEMBL document CHEMBL3352322, “Synthesis and biological evaluation of 3-phenethylazetidine derivatives as triple reuptake inhibitors” (Bioorg Med Chem Lett, 2014).

T2 sequence (P23975 whole entry): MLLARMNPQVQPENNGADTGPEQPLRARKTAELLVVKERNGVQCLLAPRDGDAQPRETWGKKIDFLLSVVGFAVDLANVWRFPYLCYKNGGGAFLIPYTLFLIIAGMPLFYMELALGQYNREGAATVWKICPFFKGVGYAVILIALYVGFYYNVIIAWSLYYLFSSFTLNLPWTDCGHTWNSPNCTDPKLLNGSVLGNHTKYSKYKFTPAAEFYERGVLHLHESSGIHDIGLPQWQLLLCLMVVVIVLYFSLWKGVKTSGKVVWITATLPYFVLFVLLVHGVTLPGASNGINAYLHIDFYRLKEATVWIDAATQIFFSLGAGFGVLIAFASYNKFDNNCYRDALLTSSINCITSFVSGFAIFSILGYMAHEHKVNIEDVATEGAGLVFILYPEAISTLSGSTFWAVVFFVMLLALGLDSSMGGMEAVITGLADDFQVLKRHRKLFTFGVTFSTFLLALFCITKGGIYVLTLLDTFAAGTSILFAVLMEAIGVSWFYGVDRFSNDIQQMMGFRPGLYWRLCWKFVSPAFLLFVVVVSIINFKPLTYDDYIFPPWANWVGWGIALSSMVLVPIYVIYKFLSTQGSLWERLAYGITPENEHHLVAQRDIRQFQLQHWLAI

`Clc1ccccc1OC(CC1CNC1)c1ccc2ccccc2c1` (centres undefined) displayed an inhibition in [1] of 25%.
`Cc1cccc(OC(CC2CNC2)c2ccc(Cl)c(Cl)c2)c1` (centres undefined): the remaining at 0.5 h, 1 µM in series [2] worked out at 62%. In addition, the inhibition was found to be 21% in [1], 100% in series [3] and 100% in series [4].
`Clc1ccc(C(CC2CNC2)Oc2ccccc2)cc1Cl` (centres undefined): the Ratio IC50 in [5], in series [6], in series [7] and in [8] was over 7 in each case. Moreover, the pIC50 is 7.08 in series [9], 7.43 in [10] and 7.28 in series [11]. Moreover, in series [2], the remaining at 0.5 h, 1 µM was determined as 67%. In addition, the inhibition in series [1] came to 50%; in series [3] it was 100%; in series [4], 100%.
As to `FC(F)(F)Oc1ccccc1OC(CC1CNC1)c1ccc(Cl)c(Cl)c1` (centres undefined), the inhibition in series [1] was found to be 16%; in [3], 93%; in series [4], 100%.
For the compound `Clc1ccc([C@]23CNC[C@H]2C3)cc1Cl` [AMITIFADINE], the remaining at 0.5 h, 1 µM in series [2] is 67%.
Turning to `Clc1ccc(OC(CC2CNC2)c2ccc(Cl)c(Cl)c2)cc1` (centres undefined), the inhibition in [1] worked out at 41%; in [3] it was 100%; in series [4] it was 100%.
As for `Fc1cc(C(CC2CNC2)Oc2ccccc2OC(F)(F)F)ccc1Cl` (centres undefined), the figures for the inhibition in series [1], in series [3] and in [4] were 48%, 100% and 100%, respectively.
Compound `Fc1ccc(OC(CC2CNC2)c2ccc(F)c(F)c2)cc1` (centres undefined) registered an inhibition in [1] of 55%.
For `Cc1ccccc1OC(CC1CNC1)c1ccc(Cl)c(Cl)c1` (centres undefined), the remaining at 0.5 h, 1 µM in series [2] was found to be 89%. In addition, the inhibition in series [1] came out at 25%; in series [3], 100%; in series [4] it was 100%.
With `Clc1ccc(OC(CC2CNC2)c2ccc(Cl)c(Cl)c2)cc1Cl` (centres undefined), the inhibition in series [1] was found to be 21%; in series [3], 88%; in series [4], 100%.
As to `CNCCC(Oc1ccccc1OC)c1ccccc1` (centres undefined), the inhibition in series [3] was found to be 43%; in series [4] it was 85%.
Take `Fc1cc(C(CC2CNC2)Oc2ccccc2)ccc1Cl` (centres undefined): the pIC50 in series [9] is 7.29; in series [10], 7.97; in series [11] it was 7.48. The remaining at 0.5 h, 1 µM in series [2] worked out at 41%. Moreover, the inhibition in series [1] was 80%; in series [3], 100%; in series [4], 100%.
For the compound `Cc1cccc(OC(CC2CNC2)c2ccc(F)c(F)c2)c1` (centres undefined), the inhibition in [1] was 100%.
For `COCC(=O)O[C@]1(CCN(C)CCCc2nc3ccccc3[nH]2)CCc2cc(F)ccc2[C@@H]1C(C)C` [MIBEFRADIL], in series [2], the remaining at 0.5 h, 1 µM amounted to 43%.
As for `Fc1cccc(OC(CC2CNC2)c2ccc(F)c(F)c2)c1` (centres undefined), the inhibition in series [1] is 94%.
Take `Clc1ccc(C(CC2CNC2)Oc2ccccc2Cl)cc1Cl` (centres undefined): the inhibition amounted to 40% in series [1], 100% in series [3] and 100% in [4].
`Clc1cccc(OC(CC2CNC2)c2ccc(Cl)c(Cl)c2)c1` (centres undefined): the values for the inhibition in series [1], in series [3] and in series [4] were 35%, 100% and 100%, respectively.
In series [1], `Fc1ccc(C(CC2CNC2)Oc2cccc(Cl)c2)cc1F` (centres undefined) yielded an inhibition of 77%.
On to `O=c1cc(-c2ccccc2)oc2c1ccc1ccccc12` [ALPHA-NAPHTHOFLAVONE], for which the inhibition at 10 µM on CYP1A2 came to 5.4%.
Turning to `Fc1ccccc1OC(CC1CNC1)c1ccc(Cl)c(Cl)c1` (centres undefined), the Ratio IC50 in [5], in [6], in series [7] and in series [8] was over 7 in each case. In addition, the negative-log IC50 (pIC50) in series [9] was 7.13; in [10] it was 7.47; in [11], 7.27. Also, the inhibition worked out at 59% in [1], 100% in series [3] and 100% in series [4].
Consider `Fc1ccc(C(CC2CNC2)Oc2ccc(Cl)c(Cl)c2)cc1F` (centres undefined), for which the inhibition in series [1] is 44%.
For `FC(F)(F)Oc1ccc(OC(CC2CNC2)c2ccc(Cl)c(Cl)c2)cc1` (centres undefined), the inhibition in series [1] stood at 16%; in series [3], 98%; in series [4], 100%.
Regarding `Cc1ccc(OC(CC2CNC2)c2ccc(Cl)c(Cl)c2)cc1` (centres undefined), the inhibition in series [1] stood at 59%; in [3] it was 100%; in series [4], 100%.
For `Fc1cc(C(CC2CNC2)Oc2cccc(OC(F)(F)F)c2)ccc1Cl` (centres undefined), the inhibition stood at 25% in [1], 97% in series [3] and 100% in series [4].
As for `Clc1ccccc1OC(CC1CNC1)c1ccccc1` (centres undefined), the inhibition in [1] was found to be 100%.
In [1], `Fc1ccc(C(CC2CNC2)Oc2cccc(OC(F)(F)F)c2)cc1F` (centres undefined) came in with an inhibition of 83%.
On to `Nc1ccc(S(=O)(=O)Nc2ccnn2-c2ccccc2)cc1` [SULFAPHENAZOLE], for which, at CYP2C9, the inhibition at 10 µM stood at 11.3%.
For `Clc1ccc(COC(Cn2ccnc2)c2ccc(Cl)cc2Cl)c(Cl)c1` (centres undefined) [MICONAZOLE], the inhibition at 10 µM at CYP2C19 came to 8.6%.
For `Fc1ccc(OC(CC2CNC2)c2ccc(Cl)c(Cl)c2)cc1F` (centres undefined), the values for the inhibition in series [1], in [3] and in [4] were 31%, 100% and 100%, respectively.
Take `Cc1ccccc1OC(CC1CNC1)c1ccc(F)c(F)c1` (centres undefined): the inhibition in series [1] was determined as 93%.
As for `Fc1cc(C(CC2CNC2)Oc2ccc(Cl)cc2)ccc1Cl` (centres undefined), the inhibition in [1] is 65%; in series [3], 100%; in [4] it was 100%.
On to `Cc1ccccc1OC(CC1CNC1)c1ccc2ccccc2c1` (centres undefined), for which the inhibition in series [1] was found to be 48%.
Still for that read-out and setting: under `Fc1ccc(C(CC2CNC2)Oc2ccc(OC(F)(F)F)cc2)cc1F` (centres undefined) stands 83%.
`Fc1cccc(OC(CC2CNC2)c2ccc(Cl)c(Cl)c2)c1` (centres undefined): the inhibition came out at 26% in series [1], 100% in [3] and 100% in [4].
`Cc1ccccc1OC(CC1CNC1)c1ccccc1` (centres undefined) displayed an inhibition in series [1] of 100%.
On to `Fc1ccc(C(CC2CNC2)Oc2ccccc2F)cc1F` (centres undefined), for which the inhibition in series [1] worked out at 61%.
As to `c1ccc(OC(CC2CNC2)c2ccccc2)cc1` (centres undefined), the inhibition in series [1] was 66%.
As for `FC(F)(F)Oc1cccc(OC(CC2CNC2)c2ccc(Cl)c(Cl)c2)c1` (centres undefined), the inhibition in [1] amounted to 9%; in series [3] it was 77%; in [4] it was 100%.
As for `Fc1ccc(C(CC2CNC2)Oc2ccccc2OC(F)(F)F)cc1F` (centres undefined), the inhibition in [1] was found to be 19%.
As to `c1ccc(OC(CC2CNC2)c2ccc3ccccc3c2)cc1` (centres undefined), the inhibition in [1] was found to be 56%.
As for `Fc1ccc(C(CC2CNC2)Oc2ccccc2)cc1F` (centres undefined), in [1], the inhibition came out at 48%.
In the case of `Fc1ccc(C(CC2CNC2)Oc2ccc(Cl)cc2)cc1F` (centres undefined), the inhibition in series [1] came out at 49%.
In turn, `Fc1ccc(C(CC2CNC2)Oc2ccccc2Cl)cc1F` (centres undefined) gave an inhibition in series [1] of 86%.
Turning to `Cc1ccc(OC(CC2CNC2)c2ccc(F)c(F)c2)cc1` (centres undefined), the inhibition in series [1] came to 83%.
For the compound `Fc1ccc(OC(CC2CNC2)c2ccc(F)c(F)c2)cc1F` (centres undefined), the inhibition in series [1] was determined as 63%.
Consider `Fc1ccc(OC(CC2CNC2)c2ccc(Cl)c(Cl)c2)cc1` (centres undefined), for which the Ratio IC50 in series [5], in [6], in series [7] and in [8] was over 7 in each case. The negative logarithm of the IC50 (pIC50) in series [9] is 7.14; in series [10] it was 7.47; in series [11], 6.89. Further, the inhibition in [1] came out at 64%; in [3], 100%; in [4], 100%.
On to `Fc1ccccc1OC(CC1CNC1)c1ccccc1` (centres undefined), for which the inhibition in series [1] stood at 64%.
